Paper PMC10628858, “Investigation of new ferrocenyl-artesunate derivatives as antiparasitics” (Dalton Transactions (Cambridge, England : 2003), 2023)
Where two headings read alike, the source gives them in different places.

What was measured:
[1] = Cyclic voltammetry (oxidation/reduction potentials); format: physicochemical; conditions: Ag/AgCl electrode, scan rate 100 mV s^−1, 0.100 M [NBu4][PF6] in MeCN
[2] = Kinetic aqueous solubility, turbidimetric assay; format: physicochemical; conditions: turbidimetric assay, buffer not named
Description: The kinetic solubility of the complexes was determined by means of a turbidimetric assay. The complexes were first dissolved in dimethyl sulfoxide (DMSO) which was then serially diluted in either phosphate buffered saline (PBS) or 4-(2-hydroxyethyl)-1-piperazineethanesulfonic acid (HEPES). The extent of precipitation was then measured using the absorbance at 620 nm.
PBS was prepared by dissolving one PBS tablet in 200 mL of distilled water at 25 °C yielding a buffered solution containing 10 mM phosphate buffer, 3.0 mM KCl and 140 mM NaCl. The pH was then confirmed to be at 7.4 with a pH meter. A 0.025 M HEPES buffer was prepared by dissolving HEPES free acid 5.00 mmol in distilled water (±180 mL) and titrating the solution with 0.100 M NaOH until a pH 7 was reached, the volume was then made up to 200 mL using distilled water. A 10.0 mM stock of each drug was prepared in DMSO. […] 4 μL of the drugs was then pipetted into a 96-well plate loaded with 196 μL of either the desired buffer solution or DMSO. The test plates were then incubated at 37 °C for 4 hours following which the UV-Vis absorbance was measured at 620 nm and the absorbances corrected by subtracting the blank.

[3] = test system: T. gondii (ΔKu80::mNeonGreen); experiment: T. gondii growth inhibition assay (mNeonGreen fluorescence); format: cell-based, Toxoplasma gondii; conditions: three independent experiments in triplicate, ± SEM
Description: […]. The rate of hydrolysis of C2 and C4 is closely correlated to the activity seen against T. gondii, such that the more readily the complex separates into its constituents, parts the better the overall activity.
To further investigate whether the accumulation of ROS was implicated in the MoA, the growth inhibition studies were repeated in the presence of the ROS scavenger N-acetyl cysteine (NAC) (Table 5).
Growth inhibition assays were performed in black, clear-bottomed 96 well plates preseeded with Human foreskin fibroblasts (HFFs) as described previously.[48] ΔKu80:mNeonGreen T. gondii were counted using a hemeocytometer and media from the host-cell seeded plate was aspirated and replaced with either 200 μL of D3 or 200 μL of media + 5000 parasites per well. Infected cells were incubated for 2 hours at 37 °C with 5% CO2 to allow for invasion. Following this, the media was removed and replaced with 100 μL fresh media. 100 μL of media containing 100 μM of the indicated drug in sterile DMSO was added and serially diluted. The parasites were then incubated for four days at 37 °C with 5% CO2 then flourescense read using the PHERAstar microplate reader. After removal of background, fluorescence values were normalised to untreated and plotted. Data analysis and non-linear regression was performed in Prism.

T. gondii = experiment: Determination of intracellular ROS levels with CellROX by flow cytometry; format: cell-based, Toxoplasma gondii; conditions: 5 μM, 6 hours, 50 000 parasites, vs untreated
Description: Since both ferrocene and artesunate are able to generate ROS, we attempted to quantify the intracellular ROS levels in the parasite using CellROX, a compound which fluoresces in the presence of ROS. Treatment with artesunate was included as positive control as previous studies have linked artesunate treatment to ROS accumulation.[44] The parasites were treated with 5 μM of complexes C1, C3 and C4, and incubated for 6 hours. […] Since T. gondii rely predominately on heme biosynthesis as opposed to incorporation of heme from host hemoglobin, the concentration of iron present in the parasite is lower.[45] But, by incorporating an iron center in the molecule the slower activation may be circumvented leading to quicker cell death and a decreased CellROX reading.
Fig. 5 CellROX fluorescence quantified by flow cytometry from 50 000 parasites. T. gondii were untreated (grey) or treated for 6 hours with 5 μM compounds (blue) or artesunate (red) as a positive control.
Intracellular parasites were treated with 5 μM of the drug and incubated at 37 °C with 5% CO2 for either 18 hours or 6 hours. The parasites were released from host cells by scraping and syringing followed by passing through 3 μm filters to remove host-cell debris. The parasites were spun down at 6000 RPM for 10 minutes and resuspended in 500 μL PBS. 100 μL of the parasite suspension was placed in a FACS tube and a stock solution of CellROX dye in PBS (1 : 125 dilution) was added to this. This was then incubated in the dark at 37 °C for 1 hour and then read using a BD Celesta. Parasites were gated on forward and side scatter and on mNeonGreen fluorescence and histograms of Cy5 signal presented. Data analysis was performed using Flowjo.

HEK293 cells = experiment: MTT cell viability assay, HEK293; format: cell-based, human; conditions: for IC50: 48 h
Description: (§1) To assess the cytotoxicity of the four compounds a MTT cell viability assay using human embryonic kidney (HEK293) and human prostatic (PNT1A) cell lines were performed. […] The long chain compounds C1 and C3 were also shown to be non-cytotoxic towards the HEK293 cell line.
(§2) The immortalised human prostatic epithelial cell line, PNT1A (Sigma Aldrich, 95012614) was cultured in RPMI-1640 containing 10% foetal calf serum (Life Technologies, South Africa). The human embryonic kidney cell line HEK293 (ATCC) was cultured in DMEM (Life Technologies, South Africa). Both cell lines were cultured at 37 °C under 5% CO2 with 1% penicillin and streptomycin. Cancer cell cytotoxicity was evaluated using the MTT viability assay according to our previous method.[49] Briefly, cells were seeded at a density of 3 × 10^3 cells per well in 96-well plates and allowed to settle overnight. A 100 mM stock of C1/C2 and a 50 mM stock solution of C3/C4 in DMSO was prepared from which dilutions were made. The compound was then added to the cells in triplicate to obtain the indicated concentrations and 0.1% DMSO. Controls included cells treated with […] DMSO alone. After 48 h, 10 μL of 5 mg mL^−1 MTT (3-(4,5-dimethylthiazol-2-yl)-2,5-diphenyltetrazolium bromide) (Sigma-Aldrich) was added, and incubated with the cells for 4 h, followed by addition of 100 μL 10% SLS, 0.01 M HCL. The plates were read at 595 nm on a Multiscan FC plate reader (Thermo Scientific) and the data was fitted to a variable slope dose–response curve using Graphpad prism v6 to obtain the cytotoxicity IC50. The assay was repeated independently three times where inhibition was observed.

PNT1A cells = experiment: MTT cell viability assay, PNT1A; format: cell-based, human; conditions: 48 h
Description: as §1, §2

[4] = four days, in HFF host cells, read-out: IC50 against T. gondii
[5] = with 5 mM NAC (ROS scavenger), read-out: IC50 + NAC against T. gondii

Compound	E 1/2 [1]	E Ox [1]	E Red [1]	ΔE [1]	Aqueous solubility [2]	Solubility range [2]	IC50 [3, 4]	IC50 [3, 5]	Change in CellROX signal (intracellular ROS) (T. gondii)	IC50 (HEK293 cells)	IC50 (PNT1A cells)	Cytotoxicity towards HEK293 (HEK293 cells)
CC1CCC2C(C)C(OC(=O)CCC(=O)NC[c-]3cccc3)OC3OC4(C)CCC1C32OO4.[Fe+2].c1cc[cH-]c1 (stereo not shown) [Compound C4]	0.364 V	0.400 V	0.327 V	0.0730 V	5 to 10 µM	3 to 6 µg/mL	600 ± 35 nM	1200 ± 179 nM	no change in CellROX signal	36000 ± 2700 nM	> 50000 nM	
CC1CCC2C(C)C(OC(=O)CCC(=O)NCCNC(=O)[c-]3cccc3)OC3OC4(C)CCC1C32OO4.[Fe+2].c1cc[cH-]c1 (stereo not shown) [Compound C3]	0.616 V	0.660 V	0.571 V	0.0890 V	5 to 10 µM	3 to 6 µg/mL	1200 ± 64 nM	1500 ± 140 nM	increase in intracellular ROS	> 50000 nM	> 50000 nM	non-cytotoxic
CC1CCC2C(C)C(OC(=O)CCC(=O)OCCNC(=O)[c-]3cccc3)OC3OC4(C)CCC1C32OO4.[Fe+2].c1cc[cH-]c1 (stereo not shown) [Compound C1]	0.623 V	0.658 V	0.588 V	0.0700 V		25 to 51 µg/mL	680 ± 31 nM	830 ± 130 nM	no change in CellROX signal	> 100000 nM	> 100000 nM	non-cytotoxic
